Our source for the IC50 values is ChEMBL document CHEMBL1129157, “Design and synthesis of a new class of conformationally constrained inhibitors to probe the active sites of thermolysine and neutral endopeptidase 24.11” (Bioorg Med Chem Lett, 1996).

A short description of assay [1]: Compound was tested for inhibition of thermolysine, a bacterial zinc-endopeptidase. It counts as functional.
A further assay deals with T1, Neprilysin (Rattus norvegicus, UniProt P07861).
T1 sequence (P07861 whole entry): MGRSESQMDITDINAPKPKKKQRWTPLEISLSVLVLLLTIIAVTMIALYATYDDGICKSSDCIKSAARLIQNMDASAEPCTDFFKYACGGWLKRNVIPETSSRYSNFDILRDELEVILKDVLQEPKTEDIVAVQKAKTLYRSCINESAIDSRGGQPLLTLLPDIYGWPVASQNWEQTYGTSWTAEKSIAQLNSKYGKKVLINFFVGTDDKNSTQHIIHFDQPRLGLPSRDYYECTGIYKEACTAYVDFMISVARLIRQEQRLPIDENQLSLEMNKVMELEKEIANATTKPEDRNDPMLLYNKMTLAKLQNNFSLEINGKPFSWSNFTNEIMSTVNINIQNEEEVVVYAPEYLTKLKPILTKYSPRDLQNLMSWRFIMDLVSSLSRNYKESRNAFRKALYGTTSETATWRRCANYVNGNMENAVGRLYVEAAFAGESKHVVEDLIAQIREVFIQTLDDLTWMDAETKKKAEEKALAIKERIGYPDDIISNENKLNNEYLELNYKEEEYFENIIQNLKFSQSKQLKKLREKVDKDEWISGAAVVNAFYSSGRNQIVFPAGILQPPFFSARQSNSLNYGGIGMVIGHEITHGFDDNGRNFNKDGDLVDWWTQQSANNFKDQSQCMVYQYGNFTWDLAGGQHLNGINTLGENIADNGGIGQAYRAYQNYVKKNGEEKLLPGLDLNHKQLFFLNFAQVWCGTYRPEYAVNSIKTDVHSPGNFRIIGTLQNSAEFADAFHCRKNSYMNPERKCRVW
The assay is described as follows: Compound was tested for inhibition of rat kidney neutral endopeptidase.

Where only a bound is given, the exact number is not on record here.

For orientation: IC50 means the concentration needed to halve the response being measured. Read a low IC50 as higher potency. Consider `O=C(O)CNC(=O)[C@H]1[C@H](S)CC[C@@H]1c1ccccc1`, for which the IC50 in assay [1] turned out to be 29000 nM; against Neprilysin, 430 nM.
On Neprilysin, `O=C(O)[C@@H]1CCCC2c3ccccc3C[C@H](CS)C(=O)N21` (some centres not stated) returned an IC50 greater than 300 nM.
Consider `O=C(O)CNC(=O)[C@@H]1[C@@H](S)CC[C@H]1c1ccccc1`, for which the IC50 turned out to be 110000 nM in assay [1] and 480 nM on Neprilysin.
Take `O=C(O)CNC(=O)[C@H](CS)Cc1ccccc1` [(R)-THIORPHAN]: inhibition in assay [1] was half-maximal at 3000 nM (IC50).
Still for that read-out and setting: next, `O=C(O)CNC(=O)[C@@H](CS)Cc1ccccc1` [(S)-THIORPHAN]: 1800 nM.
